Results taken from patent US6710047B2, “Phthalazines with angiogenesis inhibiting activity” (Novartis AG, priority 1997, dated 2004).
pIC50: −log10 of the molar value. Structures can show the parent of a compound that is named as a salt.

Test system: not given
Experiment: not given
Conditions: not given

Compound | melting point
CC(=O)Nc1ccc2c(Cc3ccncc3)nnc(Nc3ccccc3)c2c1.Cl | 162 to 166 °C
COc1cccc(Nc2nnc(Cc3ccncc3)c3ccc(NC(C)=O)cc23)c1.Cl | 156 to 159 °C
Cc1ccc(Nc2nnc(Cc3ccncc3)c3ccccc23)cc1O (hydrate or solvate) [Example 67B] | 192 to 195 °C
C[C@@H](Nc1nnc(Cc2ccncc2)c2ccccc12)c1ccccc1.Cl.Cl | 190 °C (dec.)
COc1cccc(Nc2nnc(Cc3ccncc3)c3ccccc23)c1 | 118 to 120 °C
Cl.Cl.c1ccc(Nc2nnc(Cc3ccncc3)c3ccccc23)cc1 | 217 to 220 °C
COc1ccc(Nc2nnc(Cc3ccncc3)c3ccc(NC(C)=O)cc23)cc1.Cl | 160 to 163 °C
CC(=O)Nc1ccc2c(Cc3ccncc3)nnc(Nc3ccc(Cl)cc3)c2c1.Cl | 260 to 265 °C
CC(=O)Nc1ccc(Nc2nnc(Cc3ccncc3)c3ccccc23)cc1 [Example 11, 1-(4-Acetaminoanilino)-4-(4-pyridylmethyl)phthalazine] | > 270 °C
c1cncc(Nc2nnc(Cc3ccncc3)c3ccccc23)c1 [Example 15, 1-(3-Pyridylamino)-4-(4-pyridylmethyl)phthalazine] | 137 to 139 °C
Oc1cccc(Nc2nnc(Cc3ccncc3)c3ccccc23)c1 | 217 to 219 °C
COc1cc(Nc2nnc(Cc3ccncc3)c3ccccc23)cc(OC)c1OC [Example 54, 1-(3,4,5-Trimethoxyanilino)-4-(4-pyridylmethyl)phthalazine] | 110 to 111 °C
FC(F)C(F)(F)Oc1cccc(Nc2nnc(Cc3ccncc3)c3ccccc23)c1 (hydrate or solvate) [Example 67S] | 185 to 187 °C
Clc1ccc(Nc2nnc(NCc3ccncc3)c3ccccc23)cc1 [Example 49, 1-(4-Chloroanilino)-4-(4-pyridylmethylamino)phthalazine] | 233 to 236 °C
CC(C)c1ccc(Nc2nnc(Cc3ccncc3)c3ccccc23)cc1 (as salt: hydrochloride) [Example 47, 1-(4-Isoprolylanilino)-4-(4-pyridylmethyl)phthalazine dihydrochloride] | > 250 °C
c1ccc(-c2ccc(Nc3nnc(Cc4ccncc4)c4ccccc34)cc2)cc1 | 189 to 191 °C
[O-][n+]1nc(Nc2ccc(Cl)cc2)c2ccccc2c1Cc1ccncc1 [Example 55, 1-(4-Chloroanilino)-4-(4-pyridylmethyl)phthalazine-3-oxide] | 226 to 228 °C
CC(C)(C)c1ccc(Nc2nnc(Cc3ccncc3)c3ccccc23)cc1.Cl.Cl | 196 to 200 °C

Molecular target: T1, Flt-1 VEGF-receptor tyrosine kinase (Homo sapiens, UniProt P17948)
T1 sequence (P17948 827-1158 limits assumed): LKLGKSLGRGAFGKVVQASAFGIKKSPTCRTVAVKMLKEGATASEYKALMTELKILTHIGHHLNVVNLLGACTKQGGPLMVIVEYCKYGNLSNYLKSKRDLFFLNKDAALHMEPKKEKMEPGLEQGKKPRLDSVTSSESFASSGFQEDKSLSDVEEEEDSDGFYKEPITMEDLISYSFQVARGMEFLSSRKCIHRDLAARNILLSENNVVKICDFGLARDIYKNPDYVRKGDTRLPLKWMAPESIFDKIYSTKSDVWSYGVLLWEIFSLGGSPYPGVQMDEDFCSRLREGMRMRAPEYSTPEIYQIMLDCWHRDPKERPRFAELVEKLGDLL
Experiment: Test for activity against Flt-1 VEGF-receptor tyrosine kinase
Conditions: not given

Compound | pIC50
Cc1c(Cc2ccncc2)nnc(Nc2ccc(Cl)cc2)c1C [Example 82A, 3-(4-chloroanilino)-4,5-dimethyl-6-(pyridin-4-yl)methylpyridazine] | 6.32
CC(C)c1cccc(Nc2nnc(Cc3ccncc3)c3ccccc23)c1 [Example 67Q] | 6.48
CC(C)c1ccc(Nc2nnc(Cc3ccncc3)c3ccccc23)cc1 [Example 47, 1-(4-Isoprolylanilino)-4-(4-pyridylmethyl)phthalazine dihydrochloride] | 6.73
Cc1ccc(Nc2nnc(Cc3ccncc3)c3ccc(N)cc23)cc1 [Example 32D] | 6.32
Nc1ccc2c(Cc3ccncc3)nnc(Nc3cccc(Cl)c3)c2c1 [Example 32B] | 6.00
FC(F)C(F)(F)Oc1cccc(Nc2nnc(Cc3ccncc3)c3ccccc23)c1 [Example 67S] | 5.92
Cc1ccc(Nc2nnc(Cc3ccncc3)c(C)c2C)cc1 [Example 82B, 3-(4-methylanilino)-4,5-dimethyl-6-(pyridin-4-yl)methylpyridazine] | 6.11
Clc1cccc(Oc2nnc(Cc3ccncc3)c3ccccc23)c1 [Example 72A, 1-(3-Chlorophenoxy)-4-(4-pyridylmethyl)phthalazine] | 5.90

Same assay, conditions: kinase domain of Flt-1, poly(Glu,Tyr) 4:1, 8 μM [33P]-ATP, 15 minutes at room temperature

Compound | pIC50
CC(c1ccncc1)c1nnc(Nc2ccc(Cl)cc2)c2ccccc12 (racemic) [Example 64, rac 1-(4-Chloroanilino) 4-[1-(4-pyridyl)ethyl]phthalazine] | 6.04
